# ChEMBL document CHEMBL1201862, “PubChem BioAssay data set” (2004)
# Calls of active or inactive are those of the source.
# Key:
# [1] = molecular target: T1, Rac GTPase-activating protein 1 (Homo sapiens, UniProt Q9H0H5); experiment: blockers of MgcRacGAP-driven Rac1 GTP hydrolysis – biochemical, ADP Hunter fluorescence, primary and confirmatory, confirmation (AID 624330); assay type: functional
# T1 sequence (Q9H0H5 whole entry): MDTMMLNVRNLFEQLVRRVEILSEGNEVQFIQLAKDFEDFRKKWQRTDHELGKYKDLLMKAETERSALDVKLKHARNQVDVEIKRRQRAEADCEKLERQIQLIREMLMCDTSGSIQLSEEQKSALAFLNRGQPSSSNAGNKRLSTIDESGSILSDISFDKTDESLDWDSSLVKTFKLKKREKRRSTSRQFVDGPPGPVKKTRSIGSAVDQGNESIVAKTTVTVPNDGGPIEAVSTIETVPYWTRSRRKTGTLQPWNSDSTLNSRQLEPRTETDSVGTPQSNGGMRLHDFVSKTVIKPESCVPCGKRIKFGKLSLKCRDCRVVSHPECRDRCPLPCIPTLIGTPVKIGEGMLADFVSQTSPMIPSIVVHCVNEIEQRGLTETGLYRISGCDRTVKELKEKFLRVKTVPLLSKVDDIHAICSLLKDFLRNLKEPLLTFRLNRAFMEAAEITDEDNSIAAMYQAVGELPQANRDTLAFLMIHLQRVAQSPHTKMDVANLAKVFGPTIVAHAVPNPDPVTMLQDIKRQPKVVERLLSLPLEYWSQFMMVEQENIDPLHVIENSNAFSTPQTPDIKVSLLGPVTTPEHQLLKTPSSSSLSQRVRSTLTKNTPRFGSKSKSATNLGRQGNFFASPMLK
# [2] = viability loss in HeLa cells – cytotoxicity control for MgcRacGAP inhibitor project, dose response (AID 624300); assay type: functional
# [3] = molecular target: T2, DNA repair and recombination protein RAD54-like (Homo sapiens, UniProt Q92698); experiment: RAD54 Holliday junction migration blockers – biochemical, fluorescence, cherry-picked samples, dose series, confirmation (AID 651657); assay type: functional
# T2 sequence (Q92698 whole entry): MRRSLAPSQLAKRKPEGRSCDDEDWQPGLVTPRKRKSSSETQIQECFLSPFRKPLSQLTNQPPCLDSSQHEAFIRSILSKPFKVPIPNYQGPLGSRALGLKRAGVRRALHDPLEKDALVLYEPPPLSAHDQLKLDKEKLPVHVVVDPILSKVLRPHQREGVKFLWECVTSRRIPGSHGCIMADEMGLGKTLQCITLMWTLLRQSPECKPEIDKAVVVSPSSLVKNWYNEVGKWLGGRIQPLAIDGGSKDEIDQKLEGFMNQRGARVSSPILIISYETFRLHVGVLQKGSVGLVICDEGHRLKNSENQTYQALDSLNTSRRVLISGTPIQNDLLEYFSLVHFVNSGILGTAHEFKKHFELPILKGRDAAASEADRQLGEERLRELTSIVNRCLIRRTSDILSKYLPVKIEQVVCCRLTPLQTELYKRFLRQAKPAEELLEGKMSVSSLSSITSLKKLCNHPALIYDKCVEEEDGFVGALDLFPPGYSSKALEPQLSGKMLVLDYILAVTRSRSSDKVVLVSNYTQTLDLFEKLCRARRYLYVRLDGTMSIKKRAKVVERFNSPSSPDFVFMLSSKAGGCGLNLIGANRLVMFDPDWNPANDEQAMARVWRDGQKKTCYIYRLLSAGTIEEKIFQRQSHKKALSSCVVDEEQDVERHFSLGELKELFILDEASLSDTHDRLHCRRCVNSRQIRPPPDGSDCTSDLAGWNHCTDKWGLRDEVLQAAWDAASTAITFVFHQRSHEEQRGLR
# [4] = molecular target: T3, DNA repair protein RAD52 homolog (Homo sapiens, UniProt P43351); assay type: functional, biochemical
# T3 sequence (P43351 whole entry): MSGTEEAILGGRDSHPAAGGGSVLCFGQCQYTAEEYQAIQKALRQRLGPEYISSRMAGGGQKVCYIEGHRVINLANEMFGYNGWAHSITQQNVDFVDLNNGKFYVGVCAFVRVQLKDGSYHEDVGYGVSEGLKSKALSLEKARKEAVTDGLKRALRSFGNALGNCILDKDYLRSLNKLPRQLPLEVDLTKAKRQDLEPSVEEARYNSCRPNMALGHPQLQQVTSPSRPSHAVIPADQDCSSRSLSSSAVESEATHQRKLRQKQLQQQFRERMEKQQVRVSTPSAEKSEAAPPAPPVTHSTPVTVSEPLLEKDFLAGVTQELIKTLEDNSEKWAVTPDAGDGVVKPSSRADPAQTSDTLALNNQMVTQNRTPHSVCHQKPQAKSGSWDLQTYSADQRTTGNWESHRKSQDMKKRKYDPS
# [5] = molecular target: Hepatocyte nuclear factor 4-alpha (Homo sapiens, UniProt P41235); assay type: functional, cell-based;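 also: biochemical luminescence-based dose-response counterscreen measuring inhibition of HNF4 dimerization, run alongside a screen for blockers of ABHD5–perilipin-5 interaction; split luciferase complementation of HNF4 fusion proteins in cell lysate measuring dimerization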
# Chain of Hepatocyte nuclear factor 4-alpha (P41235 whole entry, the tested form may be a part): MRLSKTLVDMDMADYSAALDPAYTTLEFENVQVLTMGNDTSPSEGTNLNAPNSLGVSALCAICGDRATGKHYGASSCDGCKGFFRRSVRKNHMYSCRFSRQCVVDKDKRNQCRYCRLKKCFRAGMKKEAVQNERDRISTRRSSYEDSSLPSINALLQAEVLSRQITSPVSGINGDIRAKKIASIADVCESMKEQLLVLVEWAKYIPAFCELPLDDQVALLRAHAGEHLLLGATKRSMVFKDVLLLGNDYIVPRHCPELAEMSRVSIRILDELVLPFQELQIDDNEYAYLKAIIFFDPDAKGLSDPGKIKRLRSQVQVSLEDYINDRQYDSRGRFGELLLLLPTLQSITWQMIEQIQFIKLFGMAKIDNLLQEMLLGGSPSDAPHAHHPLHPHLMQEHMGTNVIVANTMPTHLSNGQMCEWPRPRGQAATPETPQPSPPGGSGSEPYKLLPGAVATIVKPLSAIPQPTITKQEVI
# [6] = molecular target: T4, Histone-lysine N-methyltransferase NSD2 (Homo sapiens, UniProt O96028); assay type: biochemical
# T4 sequence (O96028 whole entry): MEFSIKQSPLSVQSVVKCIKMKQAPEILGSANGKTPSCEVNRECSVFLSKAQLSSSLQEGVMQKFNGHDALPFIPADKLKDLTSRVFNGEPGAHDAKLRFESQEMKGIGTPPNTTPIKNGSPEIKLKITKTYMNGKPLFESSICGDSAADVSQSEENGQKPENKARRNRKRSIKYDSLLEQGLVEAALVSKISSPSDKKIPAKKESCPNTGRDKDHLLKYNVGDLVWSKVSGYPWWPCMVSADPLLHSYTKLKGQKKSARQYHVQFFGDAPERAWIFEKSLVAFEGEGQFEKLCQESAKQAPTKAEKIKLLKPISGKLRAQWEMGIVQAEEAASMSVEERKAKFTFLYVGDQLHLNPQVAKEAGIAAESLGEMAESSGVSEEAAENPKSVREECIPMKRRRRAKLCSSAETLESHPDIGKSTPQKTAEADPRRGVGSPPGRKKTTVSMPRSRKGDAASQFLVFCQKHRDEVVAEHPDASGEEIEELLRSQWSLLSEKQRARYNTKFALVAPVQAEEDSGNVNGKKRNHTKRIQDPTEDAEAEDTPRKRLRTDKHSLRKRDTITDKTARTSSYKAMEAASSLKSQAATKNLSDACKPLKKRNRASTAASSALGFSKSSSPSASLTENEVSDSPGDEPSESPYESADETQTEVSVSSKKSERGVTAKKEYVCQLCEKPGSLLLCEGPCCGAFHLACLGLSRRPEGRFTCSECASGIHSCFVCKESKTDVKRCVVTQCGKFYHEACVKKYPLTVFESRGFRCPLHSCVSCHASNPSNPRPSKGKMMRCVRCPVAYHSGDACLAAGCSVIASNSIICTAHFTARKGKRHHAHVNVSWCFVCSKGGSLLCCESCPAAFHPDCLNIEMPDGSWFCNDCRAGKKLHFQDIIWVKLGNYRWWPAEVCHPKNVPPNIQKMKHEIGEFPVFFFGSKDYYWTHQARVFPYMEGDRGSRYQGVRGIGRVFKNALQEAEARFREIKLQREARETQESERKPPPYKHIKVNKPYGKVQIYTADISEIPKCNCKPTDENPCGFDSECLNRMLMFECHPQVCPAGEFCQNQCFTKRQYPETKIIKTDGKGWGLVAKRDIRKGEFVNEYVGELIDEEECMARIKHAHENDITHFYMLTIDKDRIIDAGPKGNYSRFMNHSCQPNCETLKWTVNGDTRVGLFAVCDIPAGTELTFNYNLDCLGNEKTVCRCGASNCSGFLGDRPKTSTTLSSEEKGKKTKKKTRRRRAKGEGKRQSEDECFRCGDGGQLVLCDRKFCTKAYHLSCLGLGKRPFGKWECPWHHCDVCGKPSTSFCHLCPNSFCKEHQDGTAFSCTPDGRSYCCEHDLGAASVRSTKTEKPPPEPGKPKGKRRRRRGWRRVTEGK
# [7] = cytotoxicity toward MDA-MB-231 breast cancer cells – cell-based, CellTiter-Glo luminescence, cherry-pick, cytotoxicity control for RAD54 inhibitor project, dose response (AID 651692); assay type: functional
# Genome polyprotein = Genome polyprotein (dengue virus type 2, UniProt P29990); experiment: flavivirus cap methylation enzyme inhibition – biochemical, confirmation dose response, primary screen (AID 588689); assay type: functional
# [8] = molecular target: T5, Probable nicotinate-nucleotide adenylyltransferase (Staphylococcus aureus (strain N315), UniProt P65502); assay type: functional, Staphylococcus aureus subsp. aureus N315; conditions: read-out: IC50_Mean;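 as to IC50 Mean: confirmatory dose-response retesting of NadD inhibitor hits first found in an ultra-high-throughput screen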
# T5 sequence (P65502 whole entry): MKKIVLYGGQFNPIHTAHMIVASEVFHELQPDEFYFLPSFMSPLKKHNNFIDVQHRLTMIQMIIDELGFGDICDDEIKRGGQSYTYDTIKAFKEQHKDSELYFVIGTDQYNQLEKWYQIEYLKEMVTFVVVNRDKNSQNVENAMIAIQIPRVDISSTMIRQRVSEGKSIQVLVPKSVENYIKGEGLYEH
# [9] = molecular target: T5, Probable nicotinate-nucleotide adenylyltransferase; assay type: functional, Staphylococcus aureus subsp. aureus N315
# [10] = molecular target: T6, ATP-dependent translocase ABCB1 (Homo sapiens, UniProt P08183); experiment: P-gp JC-1 efflux blockade concentration-response – Jurkat-DNR cells, flow cytometry, set 2, dose response (AID 504569); assay type: functional; conditions: read-out: EC50_MICROM_;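 also: potency of pump inhibitors that raise cellular JC-1 green fluorescence up to the nicardipine level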
# T6 sequence (P08183 whole entry): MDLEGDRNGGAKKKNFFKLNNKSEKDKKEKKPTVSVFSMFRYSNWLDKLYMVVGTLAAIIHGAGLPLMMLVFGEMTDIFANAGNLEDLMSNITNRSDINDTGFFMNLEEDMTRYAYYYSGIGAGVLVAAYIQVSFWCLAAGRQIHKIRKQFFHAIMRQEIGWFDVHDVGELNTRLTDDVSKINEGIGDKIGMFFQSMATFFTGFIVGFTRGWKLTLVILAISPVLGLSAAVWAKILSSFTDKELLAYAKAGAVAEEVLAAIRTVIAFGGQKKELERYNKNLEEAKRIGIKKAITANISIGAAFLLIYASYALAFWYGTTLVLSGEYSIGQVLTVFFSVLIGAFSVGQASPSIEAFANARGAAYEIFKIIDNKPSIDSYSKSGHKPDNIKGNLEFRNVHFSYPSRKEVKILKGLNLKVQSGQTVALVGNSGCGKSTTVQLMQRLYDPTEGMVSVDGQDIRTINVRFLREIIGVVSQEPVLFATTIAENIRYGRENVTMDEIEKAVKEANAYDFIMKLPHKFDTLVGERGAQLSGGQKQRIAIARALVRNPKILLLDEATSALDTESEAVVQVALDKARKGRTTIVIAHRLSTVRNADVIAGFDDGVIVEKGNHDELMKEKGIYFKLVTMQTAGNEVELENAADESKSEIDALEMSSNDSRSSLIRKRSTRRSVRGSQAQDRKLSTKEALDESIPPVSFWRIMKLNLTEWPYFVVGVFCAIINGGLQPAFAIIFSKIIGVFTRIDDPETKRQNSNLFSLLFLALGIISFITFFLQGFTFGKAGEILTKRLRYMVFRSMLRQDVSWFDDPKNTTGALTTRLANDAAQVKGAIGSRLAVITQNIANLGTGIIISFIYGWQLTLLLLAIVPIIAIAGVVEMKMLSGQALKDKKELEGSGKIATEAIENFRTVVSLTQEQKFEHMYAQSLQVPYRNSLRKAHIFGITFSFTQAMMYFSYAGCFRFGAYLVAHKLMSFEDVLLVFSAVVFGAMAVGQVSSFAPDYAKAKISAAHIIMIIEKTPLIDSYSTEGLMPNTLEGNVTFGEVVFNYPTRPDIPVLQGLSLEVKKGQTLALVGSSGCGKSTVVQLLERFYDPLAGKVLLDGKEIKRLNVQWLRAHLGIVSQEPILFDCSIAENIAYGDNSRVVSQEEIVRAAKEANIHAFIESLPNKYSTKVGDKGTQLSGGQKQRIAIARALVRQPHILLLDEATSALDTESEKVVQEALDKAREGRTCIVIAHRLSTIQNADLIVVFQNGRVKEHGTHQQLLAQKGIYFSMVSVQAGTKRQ
# [11] = molecular target: T6, ATP-dependent translocase ABCB1; experiment: inhibition of BCRP-mediated JC-1 efflux – Ig-MXP3 cells, flow cytometry, set 2, dose response (AID 504566); assay type: functional; conditions: read-out: EC50_MICROM_;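 also: flow cytometry median green fluorescence of retained JC-1 dye; potency of efflux pump inhibition measured as rising substrate retention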
# [12] = molecular target: T7, Tyrosine-protein phosphatase non-receptor type 22 (Homo sapiens, UniProt Q9Y2R2); experiment: PTPN22 enzyme inhibitors – biochemical, fluorescence, LYP catalytic domain, selectivity assay for LMPTP inhibitor project, dose response (AID 652006); assay type: functional; conditions: read-out: IC50_Mean
# T7 sequence (Q9Y2R2 whole entry): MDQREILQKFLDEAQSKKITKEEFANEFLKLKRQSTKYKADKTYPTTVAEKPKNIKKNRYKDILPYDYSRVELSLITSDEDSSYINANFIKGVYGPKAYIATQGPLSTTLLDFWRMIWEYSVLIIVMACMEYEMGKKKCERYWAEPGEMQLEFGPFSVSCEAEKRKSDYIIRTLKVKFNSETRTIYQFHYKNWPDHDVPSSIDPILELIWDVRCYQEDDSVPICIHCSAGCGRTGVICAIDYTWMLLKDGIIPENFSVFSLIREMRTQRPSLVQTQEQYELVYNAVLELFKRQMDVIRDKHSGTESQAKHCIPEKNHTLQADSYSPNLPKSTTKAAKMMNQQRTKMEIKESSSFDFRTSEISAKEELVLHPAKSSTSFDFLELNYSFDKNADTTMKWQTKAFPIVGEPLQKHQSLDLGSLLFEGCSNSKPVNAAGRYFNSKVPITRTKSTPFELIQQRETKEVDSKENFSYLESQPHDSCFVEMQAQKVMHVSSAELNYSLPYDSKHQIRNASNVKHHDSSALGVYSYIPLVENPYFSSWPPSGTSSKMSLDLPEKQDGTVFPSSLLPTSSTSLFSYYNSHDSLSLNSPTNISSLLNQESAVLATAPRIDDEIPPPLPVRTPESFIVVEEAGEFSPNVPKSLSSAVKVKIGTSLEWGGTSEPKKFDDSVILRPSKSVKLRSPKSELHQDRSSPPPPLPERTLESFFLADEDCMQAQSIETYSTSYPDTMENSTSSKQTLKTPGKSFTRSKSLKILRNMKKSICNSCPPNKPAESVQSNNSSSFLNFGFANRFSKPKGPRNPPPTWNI
# [13] = molecular target: T8, Voltage-gated N-type calcium channel alpha-1B subunit/Amyloid beta A4 precursor protein-binding family A member 1 (Homo sapiens, UniProt Q00975+Q02410); assay type: protein assay
# T8 sequence (Q00975 whole entry): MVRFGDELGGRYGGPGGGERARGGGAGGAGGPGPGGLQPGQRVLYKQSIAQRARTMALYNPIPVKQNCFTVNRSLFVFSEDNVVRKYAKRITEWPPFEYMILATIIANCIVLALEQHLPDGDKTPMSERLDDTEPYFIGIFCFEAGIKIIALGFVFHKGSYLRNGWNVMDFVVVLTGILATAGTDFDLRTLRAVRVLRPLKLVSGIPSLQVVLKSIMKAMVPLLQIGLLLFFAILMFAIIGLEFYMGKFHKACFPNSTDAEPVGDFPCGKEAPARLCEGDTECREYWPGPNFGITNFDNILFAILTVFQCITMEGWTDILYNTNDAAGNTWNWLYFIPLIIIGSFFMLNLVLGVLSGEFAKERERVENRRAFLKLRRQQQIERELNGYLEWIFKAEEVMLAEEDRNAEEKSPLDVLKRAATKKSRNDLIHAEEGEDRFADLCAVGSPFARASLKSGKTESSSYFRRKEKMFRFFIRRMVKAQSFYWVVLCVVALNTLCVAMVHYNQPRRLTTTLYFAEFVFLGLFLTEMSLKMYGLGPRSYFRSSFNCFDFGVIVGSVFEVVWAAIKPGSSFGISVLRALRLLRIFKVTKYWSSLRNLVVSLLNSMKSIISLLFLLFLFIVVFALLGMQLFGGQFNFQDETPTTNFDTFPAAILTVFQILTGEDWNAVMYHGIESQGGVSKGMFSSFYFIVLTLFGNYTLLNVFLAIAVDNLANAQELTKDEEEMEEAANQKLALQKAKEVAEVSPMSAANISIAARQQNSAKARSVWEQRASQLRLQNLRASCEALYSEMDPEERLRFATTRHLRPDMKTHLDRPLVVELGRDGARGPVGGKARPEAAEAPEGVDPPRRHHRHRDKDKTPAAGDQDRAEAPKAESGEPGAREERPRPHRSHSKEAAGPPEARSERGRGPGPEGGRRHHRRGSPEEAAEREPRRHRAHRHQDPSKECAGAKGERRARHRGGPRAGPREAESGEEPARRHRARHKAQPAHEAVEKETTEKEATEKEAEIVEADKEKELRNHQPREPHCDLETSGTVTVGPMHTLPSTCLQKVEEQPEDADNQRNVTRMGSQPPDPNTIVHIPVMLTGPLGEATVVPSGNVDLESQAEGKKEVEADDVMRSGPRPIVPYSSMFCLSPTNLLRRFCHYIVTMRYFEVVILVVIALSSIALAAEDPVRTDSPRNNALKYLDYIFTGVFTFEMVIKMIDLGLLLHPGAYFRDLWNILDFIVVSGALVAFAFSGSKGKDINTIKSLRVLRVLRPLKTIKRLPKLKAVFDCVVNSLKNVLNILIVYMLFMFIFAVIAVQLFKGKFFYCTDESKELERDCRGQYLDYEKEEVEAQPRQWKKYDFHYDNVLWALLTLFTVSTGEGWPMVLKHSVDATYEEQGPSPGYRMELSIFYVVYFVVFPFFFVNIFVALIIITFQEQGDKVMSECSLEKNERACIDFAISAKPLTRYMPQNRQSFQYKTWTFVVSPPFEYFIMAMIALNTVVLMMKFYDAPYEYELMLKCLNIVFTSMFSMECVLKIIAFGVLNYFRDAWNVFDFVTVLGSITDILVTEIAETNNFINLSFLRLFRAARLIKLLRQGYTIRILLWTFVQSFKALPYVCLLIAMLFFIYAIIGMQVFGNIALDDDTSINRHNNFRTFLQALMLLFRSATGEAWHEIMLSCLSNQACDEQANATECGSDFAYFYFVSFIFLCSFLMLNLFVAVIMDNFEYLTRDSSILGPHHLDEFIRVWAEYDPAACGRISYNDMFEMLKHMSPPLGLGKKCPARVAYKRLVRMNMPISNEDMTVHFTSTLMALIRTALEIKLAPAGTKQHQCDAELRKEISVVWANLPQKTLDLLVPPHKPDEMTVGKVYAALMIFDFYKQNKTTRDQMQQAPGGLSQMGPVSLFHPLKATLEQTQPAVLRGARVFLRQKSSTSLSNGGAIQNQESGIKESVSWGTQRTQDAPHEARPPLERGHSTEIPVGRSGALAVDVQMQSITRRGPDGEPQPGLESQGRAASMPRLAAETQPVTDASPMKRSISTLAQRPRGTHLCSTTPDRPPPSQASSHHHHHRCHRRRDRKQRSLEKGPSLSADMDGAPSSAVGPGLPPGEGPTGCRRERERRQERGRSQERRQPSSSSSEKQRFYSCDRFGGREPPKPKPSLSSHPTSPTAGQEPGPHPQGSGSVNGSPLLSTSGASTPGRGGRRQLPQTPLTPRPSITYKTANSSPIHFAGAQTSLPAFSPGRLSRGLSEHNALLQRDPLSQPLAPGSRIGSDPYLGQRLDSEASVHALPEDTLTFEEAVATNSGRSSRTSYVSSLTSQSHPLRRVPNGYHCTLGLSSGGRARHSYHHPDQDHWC
# T8 sequence (Q02410 whole entry): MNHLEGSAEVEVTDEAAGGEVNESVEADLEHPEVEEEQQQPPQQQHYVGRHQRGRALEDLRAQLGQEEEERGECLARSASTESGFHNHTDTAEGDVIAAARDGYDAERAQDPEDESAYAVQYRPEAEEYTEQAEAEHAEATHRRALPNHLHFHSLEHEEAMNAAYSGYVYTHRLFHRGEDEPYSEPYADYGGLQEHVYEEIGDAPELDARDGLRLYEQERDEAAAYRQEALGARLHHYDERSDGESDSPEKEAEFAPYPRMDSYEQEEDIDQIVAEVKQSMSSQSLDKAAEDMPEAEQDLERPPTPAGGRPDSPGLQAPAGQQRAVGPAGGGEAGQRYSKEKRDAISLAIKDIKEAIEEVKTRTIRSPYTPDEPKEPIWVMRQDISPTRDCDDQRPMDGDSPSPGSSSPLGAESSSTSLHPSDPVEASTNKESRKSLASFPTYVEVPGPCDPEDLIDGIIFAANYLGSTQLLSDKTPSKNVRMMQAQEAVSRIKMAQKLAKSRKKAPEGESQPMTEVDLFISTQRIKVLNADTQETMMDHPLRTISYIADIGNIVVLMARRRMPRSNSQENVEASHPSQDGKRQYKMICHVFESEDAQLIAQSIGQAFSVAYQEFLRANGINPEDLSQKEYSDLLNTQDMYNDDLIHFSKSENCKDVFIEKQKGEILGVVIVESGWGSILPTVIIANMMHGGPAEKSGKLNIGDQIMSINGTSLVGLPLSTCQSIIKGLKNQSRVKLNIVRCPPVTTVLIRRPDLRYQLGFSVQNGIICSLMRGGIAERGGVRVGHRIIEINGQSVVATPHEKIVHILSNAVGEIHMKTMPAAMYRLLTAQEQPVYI
# [14] = molecular target: T9, Low molecular weight phosphotyrosine protein phosphatase (Homo sapiens, UniProt P24666); assay type: functional; conditions: read-out: IC50_Mean;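 also: Dose-response confirmation assay measuring inhibition of LMPTP enzyme activity by fluorescence intensity read-out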
# T9 sequence (P24666 whole entry): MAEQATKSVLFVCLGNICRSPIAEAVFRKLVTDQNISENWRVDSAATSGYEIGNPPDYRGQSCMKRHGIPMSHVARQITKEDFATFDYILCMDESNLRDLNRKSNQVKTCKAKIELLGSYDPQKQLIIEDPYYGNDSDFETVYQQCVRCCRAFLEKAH
# [15] = molecular target: T8, Voltage-gated N-type calcium channel alpha-1B subunit/Amyloid beta A4 precursor protein-binding family A member 1; assay type: protein assay; remark: listed apart in the source
# [16] = molecular target: T10, Carboxy-terminal domain RNA polymerase II polypeptide A small phosphatase 1 (Homo sapiens, UniProt Q9GZU7); experiment: CTDSP1 inhibitors, concentration-response, biochemical, absorbance readout, ultra-high-throughput screen actives (AID 540297); assay type: functional
# T10 sequence (Q9GZU7 whole entry): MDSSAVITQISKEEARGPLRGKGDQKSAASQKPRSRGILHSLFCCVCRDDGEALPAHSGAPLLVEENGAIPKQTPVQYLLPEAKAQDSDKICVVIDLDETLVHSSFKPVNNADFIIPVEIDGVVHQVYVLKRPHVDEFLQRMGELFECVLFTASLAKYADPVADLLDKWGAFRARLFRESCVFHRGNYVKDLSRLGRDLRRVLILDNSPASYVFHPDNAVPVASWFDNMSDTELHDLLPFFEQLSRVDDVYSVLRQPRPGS
smiles,measurement,setting,value
COc1cc(C)c2sc3ccccc3c(=O)c2c1NCCN(C)C,IC50,[1],71.4 µM (active)
same,CC50,[2],53.3 µM (active)
same,AC50,[3],2.7 µM (active)
same,AC50,[4],1.07 µM (active)
same,IC50,[5],36.1 µM (inactive)
same,AC50,[6],5.29 µM (active)
same,AC50,[7],33.6 µM (active)
Cc1ccc(NS(=O)(=O)c2ccc(N/N=C/c3ccccc3OCC(=O)O)c([N+](=O)[O-])c2)c(C)c1,IC50,Genome polyprotein,43.9 µM (active)
same,IC50,[8],23.3 µM (active)
same,IC50,[9],6.32 µM (active)
COc1ccccc1C(=O)N1CCN(c2cc(-c3ccccc3)nc3cc(-c4cccc(Cl)c4)nn23)CC1,EC50,[10],4.13 µM (active)
same,EC50,[11],2.97 µM (active)
NS(=O)(=O)c1ccc(CNC(=O)Cc2cccs2)cc1,IC50,[12],56.1 µM (inactive)
same,IC50,[13],> 50 µM (inactive)
same,IC50,[14],20.7 µM (inactive)
same,IC50,[15],3.86 µM (active)
same,IC50,[16],4.18 µM (active)
